Marks after values point to notes of the source that are not given here.

We go through two molecules from article PMC3881672, “In Vitro Permeation of Micronized and Nanonized Alaptide from Semisolid Formulations” (The Scientific World Journal, 2013).

Data set [1] can be described thus: In vitro transdermal permeation, Franz diffusion cell. The conditions noted are these: for Cumulative permeated amounts Q t: mean ± SD n = 5; for apparent permeability coefficient K p × 10^−3: Kp = J/Cd, Cd 1.0 × 10^4 μg/mL.
On the set-up of data set [2]: method as in ref 8, 9 = [8]; 8 Radl S Kasafirek E Krejci I Alaptide Drugs of the Future 1990 15 445 447 || [9]; 9 Jampílek J Opatrilova R Rezacova A Oktabec Z Dohnal J Inventors; Faculty of Pharmacy, University of Veterinary and Pharmaceutical Sciences Brno, assignee, “Alaptide: Methods of effecting its solubil. The conditions noted are these: octanol-water; cited from earlier work.

Details of data set [3]: method as in ref 8, 9 = [8]; 8 Radl S Kasafirek E Krejci I Alaptide Drugs of the Future 1990 15 445 447 || [9]; 9 Jampílek J Opatrilova R Rezacova A Oktabec Z Dohnal J Inventors; Faculty of Pharmacy, University of Veterinary and Pharmaceutical Sciences Brno, assignee, “Alaptide: Methods of effecting its solubil. The conditions noted are these: cited from earlier work.
Data set [4] has as its system experimental injury. The arrangement: method as in ref 8 = [8]; 8 Radl S Kasafirek E Krejci I Alaptide Drugs of the Future 1990 15 445 447. The conditions noted are these: pigs; cited from earlier work.
Data set [5] relates to experimental skin injuries. Set-up: method as in ref 8 = [8]; 8 Radl S Kasafirek E Krejci I Alaptide Drugs of the Future 1990 15 445 447. To be noted: rats; cited from earlier work.
Details of data set [6]: method as in PMID 3726896, PMID 1687590. To be noted: similar metabolic profile also found in man; cited from earlier work.
Details of data set [7]: method as in PMID 3726896, PMID 2905482. To be noted: cited from earlier work.
Data set [8] concerns CYP1A1. Set-up: method as in PMID 3726896, PMID 2905482. To be noted: hepatocytes; cited from earlier work.
Data set [9] concerns CYP1A2. The arrangement: method as in PMID 3726896, PMID 2905482. The conditions noted are these: hepatocytes; cited from earlier work.
The test system of data set [10] is CYP1B1. Set-up: method as in PMID 3726896, PMID 2905482. To be noted: hepatocytes; cited from earlier work.

On to `C[C@@H]1NC(=O)C2(CCCC2)NC1=O` [Micro, (S)-8-Methyl-6,9-diazaspiro[4.5]decan-7,10-dione], for which the figures for the “log K p” value in data set [1] (from buffer) and in data set [1] (from gel) were −1.77 and −1.23, respectively. Moreover, the “Cumulative permeated amounts Q t” value is reported as 12.6 ± 1.9^a μg/cm^2 in data set [1] (from buffer, 0.5 h); 40.1 ± 8.0^a μg/cm^2 in data set [1] (from buffer, 1 h); 150.8 ± 7.2^a μg/cm^2 in data set [1] (from buffer, 2 h); 418.3 ± 24.6^b μg/cm^2 in data set [1] (from buffer, 4 h); 1189.0 ± 105.9^d μg/cm^2 in [1] (from buffer, 6 h); 3897.1 ± 295.6^f μg/cm^2 in data set [1] (from buffer, 24 h). Moreover, the “Cumulative permeated amounts Q t” value is given as 89.9 ± 4.0^a μg/cm^2 in data set [1] (from cream 1% (w/w), 0.5 h); 206.7 ± 8.9^a μg/cm^2 in [1] (from cream 1% (w/w), 1 h); 568.7 ± 7.2^b μg/cm^2 in [1] (from cream 1% (w/w), 2 h); 1414.5 ± 21.3^d μg/cm^2 in data set [1] (from cream 1% (w/w), 4 h); 2533.7 ± 9.2^f μg/cm^2 in data set [1] (from cream 1% (w/w), 6 h); 10602.6 ± 18.2^h μg/cm^2 in data set [1] (from cream 1% (w/w), 24 h). For the same molecule, the “Cumulative permeated amounts Q t” value in [1] (from gel 1% (w/w), 0.5 h) is listed as 220.5 ± 11.1^abc μg/cm^2; in data set [1] (from gel 1% (w/w), 1 h) it was 401.6 ± 30.9^c μg/cm^2; in data set [1] (from gel 1% (w/w), 2 h) it was 626.4 ± 211.1^d μg/cm^2; in data set [1] (from gel 1% (w/w), 4 h) it was 1474.5 ± 306.9^f μg/cm^2; in data set [1] (from gel 1% (w/w), 6 h), 1927.6 ± 241.2^g μg/cm^2; in data set [1] (from gel 1% (w/w), 24 h) it was 13766.8 ± 92.8^i μg/cm^2. For the same molecule, the “Cumulative permeated amounts Q t” value was 75.3 ± 5.4^cd μg/cm^2 in data set [1] (from ointment 1% (w/w), 0.5 h); 84.8 ± 7.3^de μg/cm^2 in data set [1] (from ointment 1% (w/w), 1 h); 96.7 ± 5.9^fg μg/cm^2 in data set [1] (from ointment 1% (w/w), 2 h); 112.4 ± 7.3^h μg/cm^2 in [1] (from ointment 1% (w/w), 4 h); 126.4 ± 3.7^i μg/cm^2 in [1] (from ointment 1% (w/w), 6 h); 151.9 ± 9.5^j μg/cm^2 in data set [1] (from ointment 1% (w/w), 24 h). The “permeation through the skin, fold more than the nanonized form” value in [1] (from the buffer and other semisolid pharmaceutical compositions) is given as “ca. 2 fold”. Besides, the “lag time T lag” value was determined as 0.69 ± 0.38 h in data set [1] (medium buffer), 0.57 ± 0.01 h in data set [1] (medium cream) and 1.03 ± 0.23 h in data set [1] (medium gel). For the same molecule, the “apparent permeability coefficient K p × 10^−3” value is 16.84 10^−3 cm/h in data set [1] (medium buffer), 45.22 10^−3 cm/h in data set [1] (medium cream) and 58.80 10^−3 cm/h in data set [1] (medium gel). Also, the “nonsteady-state permeation flux J” value stood at 168.4 ± 8.7 μg/cm^2/h in [1] (medium buffer, linearized Q t vs time, six time points); 452.2 ± 0.8 μg/cm^2/h in data set [1] (medium cream); 588.0 ± 4.8 μg/cm^2/h in data set [1] (medium gel).
In the case of `C[C@@H]1NC(=O)C2(CCCC2)NC1=O` [alaptide, (S)-8-Methyl-6,9-diazaspiro[4.5]decan-7,10-dione], the “experimental log P o/w” value in data set [2] is on record as 1.39. The solubility result in data set [3] is reported as “poorly soluble”. In addition, the stability result in [3] (sunlight) is reported as “stable in the sunlight”. The “skin regeneration after application on experimental injury” value in data set [4] is “faster skin regeneration”. Besides, in [5], the “curing of experimental skin injuries” value was “accelerated curing experimental skin injuries”. Also, in data set [6], the excretion entry was “excreted unchanged, mostly via urine”. The “toxic effects (including skin irritation)” value in data set [7] is “No toxic effects”. Moreover, the “Induction of CYP1A1” value in data set [8] is listed as “did not occur”. Besides, in [9], the “Induction of CYP1A2” value was “did not occur”. For the same molecule, the “Induction of CYP1B1” value in data set [10] is given as “did not occur”. The “permeation through the skin from ointment” value in [1] (both forms of alaptide, ointment) is recorded as “minimal”.
